Laboratory results: BigSolDB 2.1

COc1cc(/C=C/C(=O)CC(=O)/C=C/c2ccc(O)c(OC)c2)ccc1O
solubility (mole fraction)
Details	278.15 K	283.15 K	288.15 K	293.15 K	298.15 K	303.15 K	308.15 K	313.15 K	318.15 K
in ethanol	0.000407	0.000497	0.000573	0.000662	0.000769	0.000888	0.00101	0.00113	0.00128
in isopropanol	0.00146	0.0017	0.00194	0.00219	0.00252	0.00284	0.00317	0.00357	0.004
in n-propanol	0.0023	0.0026	0.00291	0.00325	0.0036	0.00401	0.00437	0.00484	0.00526
in propylene glycol	0.000715	0.000827	0.000967	0.0011	0.00126	0.00143	0.00161	0.00182	0.00206
in water	8.34e-09	1.16e-08	1.59e-08	2.15e-08	2.94e-08	4.03e-08	5.38e-08	7.06e-08	9.32e-08
